Assay results as given in PubChem BioAssay AID1845197 (Molecular Pharmacology Branch, DTP, NCI, 2023).
pIC50: −log10 of the molar value.

Test system: 349418-098-R tumor spheroid viability
Assay: Anticancer human tumor 349418-098-R patient-derived lung adenocarcinoma cell line growth inhibition
Conditions: spheroids with HUVEC and MSC; for pIC50: curve of first compound; for viability, T/C: stronger effect = lower value
Procedure, shortened: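 Complex spheroids of malignant cells with endothelial cells and mesenchymal stem cells; agents alone or combined, from near clinical Cmax (or 10 microM if unknown) down in half-log steps, 0.25% DMSO final.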
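Note: spheroids exposed to compound for 7 days before measurement.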
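Throughout, for viability, T/C: percent of vehicle control viability with 100% = DMSO-treated spheroids.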

Which results are given for `COc1cc(C)[nH]c(=O)c1CN1CCc2c(Cl)cc(C(OC)C3COC3)c(Cl)c2C1=O` (stereo not given) + Cn1nnc2c(C(N)=O)ncn2c1=O?
pIC50 (second compound 1 µM): < 5.00; pIC50 (second compound 3.16 µM): < 5.00; pIC50 (second compound 10 µM): < 5.00; pIC50 (second compound 31.6 µM): < 5.00; pIC50 (second compound 100 µM): < 5.00; viability, T/C (second compound 1 µM, first compound 0.0316 µM): 102%; viability, T/C (second compound 1 µM, first compound 0.1 µM): 99.6%; viability, T/C (second compound 1 µM, first compound 0.316 µM): 92.1%; viability, T/C (second compound 1 µM, first compound 1 µM): 90.6%; viability, T/C (second compound 1 µM, first compound 3.16 µM): 83.7%; viability, T/C (second compound 1 µM, first compound 10 µM): 79.4%; viability, T/C (second compound 3.16 µM, first compound 0.0316 µM): 103%; viability, T/C (second compound 3.16 µM, first compound 0.1 µM): 98.5%; viability, T/C (second compound 3.16 µM, first compound 0.316 µM): 95.7%; viability, T/C (second compound 3.16 µM, first compound 1 µM): 84.2%; viability, T/C (second compound 3.16 µM, first compound 3.16 µM): 84%; viability, T/C (second compound 3.16 µM, first compound 10 µM): 83.6%; viability, T/C (second compound 10 µM, first compound 0.0316 µM): 98.7%; viability, T/C (second compound 10 µM, first compound 0.1 µM): 96.7%; viability, T/C (second compound 10 µM, first compound 0.316 µM): 92.3%; viability, T/C (second compound 10 µM, first compound 1 µM): 95.1%; viability, T/C (second compound 10 µM, first compound 3.16 µM): 85%; viability, T/C (second compound 10 µM, first compound 10 µM): 81.9%; viability, T/C (second compound 31.6 µM, first compound 0.0316 µM): 104%; viability, T/C (second compound 31.6 µM, first compound 0.1 µM): 98.5%; viability, T/C (second compound 31.6 µM, first compound 0.316 µM): 93.4%; viability, T/C (second compound 31.6 µM, first compound 1 µM): 93.3%; viability, T/C (second compound 31.6 µM, first compound 3.16 µM): 84.8%; viability, T/C (second compound 31.6 µM, first compound 10 µM): 78.4%; viability, T/C (second compound 100 µM, first compound 0.0316 µM): 99%; viability, T/C (second compound 100 µM, first compound 0.1 µM): 98.7%; viability, T/C (second compound 100 µM, first compound 0.316 µM): 96.3%; viability, T/C (second compound 100 µM, first compound 1 µM): 87.4%; viability, T/C (second compound 100 µM, first compound 3.16 µM): 87%; viability, T/C (second compound 100 µM, first compound 10 µM): 81.8%

How did the pIC50 (second compound 30 pM) turn out when `CC(C)n1c(=O)n(C)c2cnc3cc(F)c(-c4ccc(OCCCN5CCCCC5)nc4)cc3c21` + COc1cc2c(cc1O)CCNC21CSC2c3c(OC(C)=O)c(C)c4c(c3C(COC1=O)N1C(O)C3Cc5cc(C)c(OC)c(O)c5C(C21)N3C)OCO4 was run?
Its pIC50 is under 5.00.

What about the pIC50 (second compound 94.9 pM) of the same molecule?
The pIC50 was under 5.00.

And the pIC50 (second compound 0.0003 µM)?
Its pIC50 is over 7.50.

What about the pIC50 (second compound 0.000949 µM) of the same molecule?
The pIC50 was over 7.50.

And the pIC50 (second compound 0.003 µM)?
Its pIC50 is over 7.50.

What about the viability, T/C (second compound 30 pM, first compound 0.0316 µM) of the same molecule?
The viability, T/C was 91.8%.

And the viability, T/C (second compound 30 pM, first compound 0.1 µM)?
Its viability, T/C is 97.4%.

What about the viability, T/C (second compound 30 pM, first compound 0.316 µM) of the same molecule?
Its viability, T/C is 106%.

And the viability, T/C (second compound 30 pM, first compound 1 µM)?
Its viability, T/C is 99.6%.

What about the viability, T/C (second compound 30 pM, first compound 3.16 µM) of the same molecule?
The viability, T/C was 98.4%.

And the viability, T/C (second compound 30 pM, first compound 10 µM)?
Its viability, T/C is 77.7%.

And the viability, T/C (second compound 94.9 pM, first compound 0.0316 µM)?
Its viability, T/C is 91.5%.

What about the viability, T/C (second compound 94.9 pM, first compound 0.1 µM) of the same molecule?
The viability, T/C was 85%.

And the viability, T/C (second compound 94.9 pM, first compound 0.316 µM)?
Its viability, T/C is 93%.

And the viability, T/C (second compound 94.9 pM, first compound 1 µM)?
The viability, T/C was 92.7%.

What about the viability, T/C (second compound 94.9 pM, first compound 3.16 µM) of the same molecule?
Its viability, T/C is 94.6%.

And the viability, T/C (second compound 94.9 pM, first compound 10 µM)?
The viability, T/C was 60.2%.

And the viability, T/C (second compound 0.0003 µM, first compound 0.0316 µM)?
The viability, T/C was 40.2%.

And the viability, T/C (second compound 0.0003 µM, first compound 0.1 µM)?
Its viability, T/C is 37%.

What about the viability, T/C (second compound 0.0003 µM, first compound 0.316 µM) of the same molecule?
Its viability, T/C is 31.7%.

And the viability, T/C (second compound 0.0003 µM, first compound 1 µM)?
Its viability, T/C is 32.1%.

What about the viability, T/C (second compound 0.0003 µM, first compound 3.16 µM) of the same molecule?
Its viability, T/C is 45.2%.

And the viability, T/C (second compound 0.0003 µM, first compound 10 µM)?
Its viability, T/C is 22.1%.

What about the viability, T/C (second compound 0.000949 µM, first compound 0.0316 µM) of the same molecule?
Its viability, T/C is 0.4%.

And the viability, T/C (second compound 0.000949 µM, first compound 0.1 µM)?
Its viability, T/C is 0.3%.

What about the viability, T/C (second compound 0.000949 µM, first compound 0.316 µM) of the same molecule?
The viability, T/C was 0.49%.

What about the viability, T/C (second compound 0.000949 µM, first compound 1 µM) of the same molecule?
Its viability, T/C is 1.21%.

What about the viability, T/C (second compound 0.000949 µM, first compound 3.16 µM) of the same molecule?
The viability, T/C was 1.2%.

And the viability, T/C (second compound 0.000949 µM, first compound 10 µM)?
The viability, T/C was 0.62%.

What about the viability, T/C (second compound 0.003 µM, first compound 0.0316 µM) of the same molecule?
Its viability, T/C is 1.38%.

What about the viability, T/C (second compound 0.003 µM, first compound 0.1 µM) of the same molecule?
Its viability, T/C is 1.4%.

And the viability, T/C (second compound 0.003 µM, first compound 0.316 µM)?
Its viability, T/C is 1.38%.

What about the viability, T/C (second compound 0.003 µM, first compound 1 µM) of the same molecule?
The viability, T/C was 1.37%.

And the viability, T/C (second compound 0.003 µM, first compound 3.16 µM)?
The viability, T/C was 1.41%.

What about the viability, T/C (second compound 0.003 µM, first compound 10 µM) of the same molecule?
Its viability, T/C is 1.51%.
